Experimental data: the NIST ThermoML archive (doi:10.1016/j.tca.2010.08.002)

Assay: molar heat capacity at saturation pressure
Conditions: Vacuum adiabatic calorimetry

CCCCn1cc[n+](C)c1.O=S(=O)([O-])C(F)(F)F [1-butyl-3-methylimidazolium trifluoromethanesulfonate]
Conditions | molar heat capacity [J/K/mol]
170.36 K, Crystal | 235.9
171.28 K, Crystal | 236.8
172.71 K, Crystal | 238.3
173.26 K, Crystal | 238.8
175.07 K, Crystal | 240.6
175.23 K, Crystal | 240.9
177.2 K, Crystal | 242.9
177.42 K, Crystal | 243.1
179.17 K, Crystal | 245
179.77 K, Crystal | 245.6
181.13 K, Crystal | 247.1
182.11 K, Crystal | 248.1
183.1 K, Crystal | 249.2
184.46 K, Crystal | 250.6
185.06 K, Crystal | 251.3
186.8 K, Crystal | 253.2
187.02 K, Crystal | 253.5
188.97 K, Crystal | 255.7
189.13 K, Crystal | 255.8
190.92 K, Crystal | 257.9
191.47 K, Crystal | 258.4
192.87 K, Crystal | 260
193.8 K, Crystal | 260.9
194.82 K, Crystal | 262.1
196.12 K, Crystal | 263.5
196.77 K, Crystal | 264.3
198.44 K, Crystal | 266.1
198.72 K, Crystal | 266.6
200.66 K, Crystal | 268.7
200.76 K, Crystal | 268.7
202.67 K, Crystal | 271
203.13 K, Crystal | 271.4
204.73 K, Crystal | 273.3
205.57 K, Crystal | 274.2
206.78 K, Crystal | 275.7
208 K, Crystal | 276.9
208.82 K, Crystal | 278.1
210.42 K, Crystal | 279.6
210.87 K, Crystal | 280.4
212.84 K, Crystal | 282.5
212.92 K, Crystal | 282.7
214.96 K, Crystal | 285
215.25 K, Crystal | 285.3
217 K, Crystal | 287.4
217.66 K, Crystal | 288
219.02 K, Crystal | 289.6
220.07 K, Crystal | 290.8
221.05 K, Crystal | 292.2
222.47 K, Crystal | 293.7
223.08 K, Crystal | 294.5
224.86 K, Crystal | 296.5
225.1 K, Crystal | 296.8
227.12 K, Crystal | 299.4
227.25 K, Crystal | 299.4
229.13 K, Crystal | 301.7
229.63 K, Crystal | 302.3
231.14 K, Crystal | 304
232 K, Crystal | 305.2
233.14 K, Crystal | 306.6
234.37 K, Crystal | 308.1
235.15 K, Crystal | 308.9
236.73 K, Crystal | 311
237.14 K, Crystal | 311.5
239.09 K, Crystal | 313.8
239.13 K, Crystal | 313.8
241.12 K, Crystal | 316.1
241.44 K, Crystal | 316.7
243.1 K, Crystal | 318.7
243.78 K, Crystal | 319.6
245.08 K, Crystal | 321
246.12 K, Crystal | 322.2
247.06 K, Crystal | 323.3
248.45 K, Crystal | 325.1
249.03 K, Crystal | 325.9
250.76 K, Crystal | 328
250.78 K, Crystal | 328
250.99 K, Crystal | 328.3
252.81 K, Crystal | 330.6
252.95 K, Crystal | 330.6
253.1 K, Crystal | 330.8
254.78 K, Crystal | 332.9
254.91 K, Crystal | 333.2
255.41 K, Crystal | 333.7
256.73 K, Crystal | 335.5
256.86 K, Crystal | 335.5
257.72 K, Crystal | 336.3
258.69 K, Crystal | 337.8
258.81 K, Crystal | 337.8
260.02 K, Crystal | 339.2
260.34 K, Crystal | 339.8
260.64 K, Crystal | 340.4
260.75 K, Crystal | 340.4
262.32 K, Crystal | 342.1
262.38 K, Crystal | 342.4
262.59 K, Crystal | 342.7
262.69 K, Crystal | 342.7
264.34 K, Crystal | 345
264.53 K, Crystal | 345.3
264.6 K, Crystal | 345
264.62 K, Crystal | 345.3
265.54 K, Crystal | 346.1
266.29 K, Crystal | 347.3
266.46 K, Crystal | 347.6
266.56 K, Crystal | 347.6
266.89 K, Crystal | 347.9
267.48 K, Crystal | 348.7
268.23 K, Crystal | 349.9
268.4 K, Crystal | 349.9
268.49 K, Crystal | 350.2
269.17 K, Crystal | 350.7
291.91 K, Liquid | 424.4
293.17 K, Liquid | 425
293.82 K, Liquid | 425.6
294.28 K, Liquid | 425.6
295.28 K, Liquid | 426.2
295.44 K, Liquid | 426.2
295.71 K, Liquid | 426.5
297.38 K, Liquid | 427
297.43 K, Liquid | 427.3
297.61 K, Liquid | 427.6
299.48 K, Liquid | 428.2
301.69 K, Liquid | 429.6
304 K, Liquid | 430.8
306.31 K, Liquid | 431.9
308.62 K, Liquid | 433.1
310.93 K, Liquid | 434.5
313.24 K, Liquid | 435.7
315.55 K, Liquid | 436.8
317.86 K, Liquid | 438
320.17 K, Liquid | 439.1
322.48 K, Liquid | 440.6
324.79 K, Liquid | 441.7
327.1 K, Liquid | 443.2
329.4 K, Liquid | 444.3
331.71 K, Liquid | 445.5
334.02 K, Liquid | 446.6
336.33 K, Liquid | 448.1
338.64 K, Liquid | 449.2
340.94 K, Liquid | 450.7
343.24 K, Liquid | 451.8
345.55 K, Liquid | 453
347.85 K, Liquid | 454.3
350.16 K, Liquid | 455.5
352.47 K, Liquid | 456.9
354.77 K, Liquid | 458.1
357.08 K, Liquid | 459.5
359.38 K, Liquid | 460.7
361.68 K, Liquid | 461.8
363.99 K, Liquid | 463
366.29 K, Liquid | 464.4
368.59 K, Liquid | 465.6
